Patent publication US7320783B2, “Methods and compositions for the enhancement of wound healing” (The Regents of the University of Michigan, priority 2002, dated 2008)

How the values were obtained:
[1] = tested on: C57BL6Ksdb/db obese diabetic mouse dermal wounds; conditions: topical; Livant et al. (2000) J. Clin. Invest. 105: 1537-1545; cited from earlier work
[2] = tested on: C57BL6Ksdb/db obese diabetic mouse dermal wounds; experiment: Dermal wound healing in obese diabetic mice, topical application; assay type: in vivo; conditions: FIG. 7
Excerpt: X axis, days since wounding. Y axis, wound area, relative to the initial wound area (13 to 19 mm^2). Db/db: healing-impaired, homozygous db/db, obese diabetic mice; db/+: normally healing, heterozygous db/+, non-diabetic littermates. Mean wound areas are shown.
Peptides are further evaluated for their ability to stimulate the diabetic wound healing. The peptides are topically applied to duplicate dermal wounds in healing-impaired obese diabetic mice (Greenhalgh et al., (1990) Am. J. Pathol. 136: 1235-1246), according to published protocols (Livant et al., (2000) J. Clin. Invest. 105: 1537-1545). Wound closure times are determined in both treated and untreated mice. To confirm the importance of the cysteine switch residue, some wounds are treated with the C to S substituted peptides. To quantitate the extent of reepithelialization for several days wounding, wounds are excised, sectioned, stained, and examined microscopically. To evaluate the provisional matrix for indications of wound contraction and angiogenesis, the presence of activated fibroblasts, collagenous fibers, microvasculature, and wound macrophages is assessed in sectioned and stained wounds for several days following wounding as described (Livant et al., (2000) J. Clin. Invest. 105: 1537-1545). These assays are performed using peptides derived from MMP 1, MMP 2, MMP 7, and MMP 9.
Each treatment group consisted of 10 mice with duplicate, dermal wounds of 12.5 to 16.5 mm^2 made in the shoulder area. Complete methods were as described (Livant et al., (2000) J. Clin. Invest. 105: 1537-1545). Treated animal were treated with 10 μg switch (PRC) sequence from MMP2 (Ac-PRCGNPDVANY-NH2) (SEQ ID NO:3). Wound areas were measured by integration of digital images.

[3] = tested on: human microvascular cells; experiment: SU-ECM in vitro invasion assay, human microvascular cells; assay type: cell-based; conditions: peptide 2, 6, 20, 60 ng/ml; 5% FCS; 4 hours on SU-ECM; FIG. 1
Excerpt: (§1) About 1×10^5 human microvascular cells, neonatal fibroblasts, or undifferentiated human keratinocytes were suspended in medium containing 5% fetal calf serum (FCS), mixed with varying concentrations of the MMP 7 switch peptide, Ac-PRCGVPDVAEY-NH2 (Gaire et al., (1994) J. Biol. Chem. 269: 2032-2040), function-blocking anti human MMP 1 monoclonal antibody (Birkedal-Hansen et al., (1988) Biochemistry 27; 6751-6758), or total human IgG, and placed on the surfaces of SU-ECM in vitro invasion substrates. SU-ECM invasion substrates are made as described from sea urchin embryos, and contain a blastocoelic cavity enclosed by an intact basement membrane and associated extracellular matrix (Livant et al., (1995) Cancer Research 55, 5085-5093). After 4 hours of incubation (the time necessary to observe maximal invasion percentages), the invasion percentage in each assay was determined by microscopic examination of the SU-ECM invasion substrates and their associated cells at 400-fold magnification. Invasion percentages are the ratios of the numbers of cells located on the internal surfaces of SU-ECM to the total numbers of cells in contact with either the internal or the external surfaces of SU-ECM, and multiplied by 100.
(§2) Cell culture and SU-ECM invasion assays. […]

[4] = tested on: human neonatal fibroblasts; experiment: SU-ECM in vitro invasion assay, human neonatal fibroblasts; assay type: cell-based; conditions: peptide 2, 6, 20, 60 ng/ml; 5% FCS; 4 hours on SU-ECM; FIG. 3
Excerpt: as §1, §2

[5] = tested on: undifferentiated human keratinocytes; experiment: SU-ECM in vitro invasion assay, human keratinocytes; assay type: cell-based; conditions: peptide 2, 6, 20, 60 ng/ml; 5% FCS; 4 hours on SU-ECM; FIG. 5
Excerpt: as §1, §2

[6] = one topical treatment with 10 μg just after wounding

Ac-PHSRN-NH2 (listed as Homo sapiens)
stimulation of dermal wound healing in obese diabetic C57BL6Ksdb/db mice [1]: potent topical agent for stimulating dermal wound healing

Ac-PRCGNPDVANY-NH2 (listed as Homo sapiens) [PRC peptide]
decrease of the time required for closure of all db/db wounds, relative to untreated db/db mice [2, 6]: 50% | rapidity of closure of treated db/db wounds compared with db/+ non-diabetic mice [2, 6]: as rapid as that of db/+ non-diabetic mice | enhancement of db/db wound healing (wound area relative to the initial wound area) ([2]; single topical application): enhancement

Ac-PRCGVPDVAEY-NH2 (listed as Homo sapiens) [MMP 7 switch peptide, MMP 7 prodomain cysteine switch peptide]
induction of human microvascular cell invasion (percent of cells invaded) [3]: induces dose-dependent invasion | induction of human neonatal fibroblast invasion (percent of fibroblasts invaded) [4]: induces dose-dependent invasion | induction of human keratinocyte invasion (percent of keratinocytes invaded) [5]: induces dose-dependent invasion
